Data published in patent US12685311B2, “Environmentally friendly biocidal quaternized amine compound” (Baker Hughes Oilfield Operations LLC, priority 2023, dated 2026).

Tested on: microbial population (oilfield produced waters containing a range of microbes)
Experiment: ATP quantification of oilfield produced waters after biocide treatment
Type: cell-based
Details: 400 ppm, after four hours, oilfield produced waters amended with nutrients, versus untreated control
Description: Laboratory tests were performed to observe the environmentally friendly biocide of one embodiment for its ability to reduce microbial populations. The performance of the environmentally friendly biocide was further compared with that of two non-biodegradable biocidal quaternary amine compounds: alkyldimethylbenxylammonium chloride (ADBAC) and didecyldimethylammonium chloride (DDAC).
Test bottles were prepared with oilfield produced waters amended with nutrients containing a range of microbes. These bottles were treated with 400 ppm of either di(dimethyl(alkyl)ammonium chloride) ethanoyloxy-oxo, ADBAC, or DDAC, with one test bottle left as an untreated control. After four hours, ATP quantification and serial dilution using Modified Postgate's B media were performed for the various test bottles.

| Compound | reduction of the microbial population via ATP |
| --- | --- |
| CCCCCCCCCC[N+](C)(C)CCCCCCCCCC.[Cl-] [DDAC, didecyldimethylammonium chloride] | 99.06% |
| alkyldimethylbenxylammonium chloride [ADBAC] | 99.16% |
| di(dimethyl(alkyl)ammonium chloride) ethanoyloxy-oxo | 96.79% |
